The values below come from article PMC6567057, “Pharmacokinetic, metabolic stability, plasma protein binding and CYP450s inhibition/induction assessment studies of N-(2-pyridylmethyl)-2-hydroxiymethyl-1-pyrrolidinyl-4-(3-chloro-4-methoxy-benzylamino)-5-pyrimidine-carboxamide as potential type 5 phosphodiesterase inhibitors” (Animal Cells and Systems, 2019).

Like-named read-outs stand apart in the source and are kept apart here.

Data set [1] in a line: In vitro metabolic stability in human liver microsomes. The data set is classed as in vitro ADME. Particulars: for remaining at 1 h, 1 µM: liver microsomes, pH 7.4, human liver microsomes, 60 min, read-out: percent remaining. The method, then:
The phosphate buffer (pH 7.4, 100 mM) and (300 mM) were prepared in deionized water. NADP and IA were dissolved in phosphate buffer and MgCl2 solution and then added 20 μL IDH (18 units/mg protein) and mixed. NHPPC (1 mM) and positive control drug were prepared by dilution using DMSO and then the NHPPC and positive control drug working solution (50 μM) were obtained by dilution using methanol: H2O (1:1, v/v) mixture. Pooled human, rat and dog liver microsomes were added to phosphate buffer pH7.4 to a concentration 20 mg/mL. NHPPC was incubated with liver microsomes. The incubation solution of the final reaction conditions contained 50 mM potassium phosphate buffer (pH 7.4), 0.5 mg protein/mL microsomes, 3 mM MgCl2, 2 mM NADPH and 1 μM NHPPC or positive control drug in a final volume of 100 μL. In sample and positive control groups, NADPH was added into the incubation solutions. In the negative control group, water (the replacement of NADPH) was added into the incubation solutions. Samples were incubated aerobically in a shaking water bath at 37°C and the reaction was terminated by adding 300 μL of ice cold acetonitrile (contain 100 ng/mL IS) at different interval 0, 5, 10, 20, 30 and 60 min. While positive control and negative control were incubated aerobically in a shaking water bath at 37°C for 0 and 60 min, respectively. NHPPC and control concentrations were determined by LC-MS/MS at each time point (n = 3). Calculation of t1/2 and CLint was performed by using following equations, where K is the elimination rate constant (min^−1) and QH is hepatic blood flow (mL/min/kg). t1/2=0.693/KCLint,in vitro=VD×KVD=Volume of reaction mixture(mL)/mg of protein per reation.
Hepatic intrinsic clearance was estimated by using the scaling factors and calculated by using the following equation (Lave et al. [1997]). CLint,in vivo=CLint×mg microsomal protein per liver×g liver per kg body weight, Cint,H=CLint,in vivo×QH/CLint,in vivo+QH,EH=CLint,H/QH.
(In general: Microsomes from liver hold many membrane-bound enzymes, among them those of drug oxidation.)

Data set [2] is described as follows: Plasma protein binding by equilibrium dialysis (dog). Particulars: beagle. The data set is classed as in vitro ADME, Beagle dog. The procedure:
(§1) The phosphate buffer (100 mM) and sodium hydroxide solution (1.0 M) were prepared in deionized water. […] PPB was determined by equilibrium dialysis method. An aliquot (150 μL) of NHPPC spiked plasma and phosphate buffer (pH 7.4) was added into the donor side and the receiver side of each designated well. The plate was covered with adhesive sealing film to prevent evaporation and placed in a water-bath shaker kept at 37°C for 6 h with a rate of 50 rpm. […] At the end of 6 h, aliquots were taken from each side of each well (n = 3) and kept in a −20°C freezer prior to analysis. The stability, device recovery and PPB were calculated using the following equations: Remaining at 6 h (%)=C6h/C0h×100%, Device recovery (%)=CDonor+CReceiver/C6h×100%, PPB (%)=CDonor−CReceiver/CDonor×100%.
On the technique in general: In equilibrium dialysis free small molecules cross a membrane that holds back macromolecules.

For data set [3], the system named is dog plasma proteins. The description is as above. In kind it is in vitro ADME, Beagle dog. Particulars: dog plasma, mean of 0.2 and 1 µM. The procedure: as §1
Data set [4] concerns rabbit model. In words: Preliminary efficacy experiment of rabbit model in vivo. Particulars: compared with avanafil, data not published.

One may read the share remaining as the share of the starting amount still present when the sample was taken. In general, half-life refers to how long it takes for the measured level to halve. As to `COc1ccc(CNc2nc(N3CCC[C@H]3CO)ncc2C(=O)NCc2ccccn2)cc1Cl` [NHPPC, N-(2-pyridylmethyl)-2-hydroxiymethyl-1-pyrrolidinyl-4-(3-chloro-4-methoxy-benzylamino)-5-pyrimidine-carboxamide], the amount remaining at 1 h, 1 µM in data set [1] (human, in the presence of NADPH, 1 μM) is 42%; in data set [1] (human, without NADPH regenerating system) it was 99.4%. For the same molecule, the ranking for clearance result in data set [1] (human, ranking criteria of Houston 1994, Kerns and Di 2008) is recorded as “middle clearance”. The molecule also gave a CLH in data set [1] (human, scaled from liver microsomes) of 9.80 mL/min/kg. The molecule also had a half-life at 1 µM in data set [1] (liver microsomes (pooled), pH 7.4, human liver microsomes) of 46.2 min. The microsomal CLint at 1 µM in data set [1] (liver microsomes (pooled), pH 7.4, human liver microsomes, read-out: CLint, ivtro) amounted to 21.4 µL/min/mg. Besides, the k el at 1 µM in data set [1] (liver microsomes (pooled), pH 7.4, human liver microsomes, read-out: Ke (converted)) is 0.00025 s⁻¹. For the same molecule, in data set [2] (dog, plasma, pH 7.4, dog plasma, 0.2 µM, equilibrium dialysis 6 h, read-out: Mean PPB % (converted)), the fraction unbound at 6 h, 0.2 µM is 0.008. In addition, the fraction unbound at 6 h, 1 µM in data set [2] (dog, plasma, pH 7.4, dog plasma, 1 µM, equilibrium dialysis 6 h, read-out: Mean PPB %) came out at 0.001 ± 3.8e-06. In addition, the recovery at 6 h, 0.2 μM in data set [2] (pH 7.4, dog plasma, equilibrium dialysis, n = 3, read-out: Mean device recovery %) is 95.7 ± 0.3%. Besides, in data set [3], the “Mean PPB %” value stood at 99.6 ± 0.26%. In addition, in data set [4], the preliminary efficacy result is “stronger than avanafil”.
